Assay results taken from the supplement of paper PMC4862054.

How the values were obtained:
Settings in all cases: incubation time: 72 h
CAL-51 [1] = assay: normalised viability (% of control), CellTiter-Blue; higher = more viable cells (100 = DMSO, 0 = benzethonium chloride kill control)
Protocol: (§1)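 DSRT, CellTiter-Blue viability, 72 h incubation. Signal is normalised to DMSO and benzethonium chloride controls. Value is the normalised response at dose 1.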

HCC1599 [2] = assay: as above
Protocol: as §1

BT-474 [3] = assay: as above
Protocol: as §1

CAL-85-1 [4] = assay: normalised viability (% of control), CellTiter-Blue; higher = more viable cells (about 100 = DMSO control)
Protocol: (§2)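 DSRT, CellTiter-Blue viability, 72 h incubation. Signal is normalised to DMSO and benzethonium chloride controls. Value is the normalised response at dose 7.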

DU-4475 [5] = assay: as above
Protocol: as §2

MDA-MB-453 = assay: as above
Protocol: as §2

CAL-51 [6] = assay: as above
Protocol: as §2

HDQ-P1 [7] = assay: as above
Protocol: as §2

CAL-148 [8] = assay: as above
Protocol: as §2

MCF-10A = assay: drug sensitivity score (DSS), CellTox Green (DSS (AUC-based score)); higher = stronger drug effect (viability inhibition or cytotoxicity); extreme values may be limits of the assay
In short: (§3)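 Using 20 µl of cell suspension per well, breast cancer cell lines were seeded into 384-well plates pre-loaded with compound at 5 concentrations in 10-fold steps across a compound-specific 10,000-fold range. Incubation lasted 72 h, after which CellTox Green fluorescence at 485/520 nm and then CellTiter-Glo luminescence, following 10 min at room temperature, were recorded. Each plate was normalised to 0.1 % DMSO and a positive kill control before the drug sensitivity score was derived from the area under the fitted dose-response curve.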

CAL-85-1 [9] = assay: as above
In short: as §3

HCC1937 = assay: as above
In short: as §3

BT-549 = assay: as above
In short: as §3

DU-4475 [10] = assay: as above
In short: as §3

CAL-120 = assay: as above
In short: as §3

MDA-MB-468 = assay: as above
In short: as §3

CAL-51 [11] = assay: as above
In short: as §3

HCC1599 [12] = assay: as above
In short: as §3

HDQ-P1 [13] = assay: as above
In short: as §3

HCC1143 = assay: as above
In short: as §3

CAL-148 [14] = assay: as above
In short: as §3

BT-474 [15] = assay: as above
In short: as §3

MDA-MB-231 = assay: as above
In short: as §3

MFM-223 = assay: as above
In short: as §3

MDA-MB-436 = assay: as above
In short: as §3

Hs578T = assay: as above
In short: as §3

SMILES | normalised viability (CAL-51 [1]; 0.1 nM) | normalised viability (HCC1599 [2]; 0.1 nM) | normalised viability (BT-474 [3]; 0.1 nM) | normalised viability (CAL-85-1 [4]; 100 nM) | normalised viability (DU-4475 [5]; 100 nM) | normalised viability (MDA-MB-453; 100 nM) | normalised viability (CAL-51 [6]; 100 nM) | normalised viability (HDQ-P1 [7]; 100 nM) | normalised viability (CAL-148 [8]; 100 nM) | drug sensitivity score (MCF-10A) | drug sensitivity score (CAL-85-1 [9]) | drug sensitivity score (HCC1937) | drug sensitivity score (BT-549) | drug sensitivity score (DU-4475 [10]) | drug sensitivity score (CAL-120) | drug sensitivity score (MDA-MB-468) | drug sensitivity score (CAL-51 [11]) | drug sensitivity score (HCC1599 [12]) | drug sensitivity score (HDQ-P1 [13]) | drug sensitivity score (HCC1143) | drug sensitivity score (CAL-148 [14]) | drug sensitivity score (BT-474 [15]) | drug sensitivity score (MDA-MB-231) | drug sensitivity score (MFM-223) | drug sensitivity score (MDA-MB-436) | drug sensitivity score (Hs578T) | normalised viability (CAL-51 [1]; 1 nM) | normalised viability (HCC1599 [2]; 1 nM) | normalised viability (BT-474 [3]; 1 nM) | normalised viability (CAL-85-1 [4]; 1000 nM) | normalised viability (DU-4475 [5]; 1000 nM) | normalised viability (MDA-MB-453; 1000 nM) | normalised viability (CAL-51 [6]; 1000 nM) | normalised viability (HDQ-P1 [7]; 1000 nM) | normalised viability (CAL-148 [8]; 1000 nM)
C=CC(=O)N1CCC[C@@H](n2nc(-c3ccc(Oc4ccccc4)cc3)c3c(N)ncnc32)C1 | 93.1% | 105% | 107% | 77.3% | 92.4% | 39.5% | 91.9% | 111% | 98% |  |  |  |  |  |  |  |  |  |  |  |  |  |  |  |  |  |  |  |  |  |  |  |  |  | 
COc1cc2c(NC3CCN(C(C)C)CC3)nc(C3CCCCC3)nc2cc1OCCCN1CCCC1 [UNC0638] |  |  |  |  |  |  |  |  |  | 7.41 | 6.93 | 7.61 | 8.31 | 0 | 6.94 | 7.09 | 9.03 | 1.89 | 1.42 | 0 | 6.35 | 7.51 | 9.02 | 3.4 | 4.24 |  |  |  |  |  |  |  |  |  | 
CC(=O)Nc1cccc(-n2c(=O)n(C3CC3)c(=O)c3c(Nc4ccc(I)cc4F)n(C)c(=O)c(C)c32)c1 [Trametinib] |  |  |  |  |  |  |  |  |  | 4.18 | 7.34 | 0 | 0 | 7.36 | 1.74 | 0 | 0 | 0 | 0 | 0 | 0 | 0 | 12 | 0 | 0 | 0 |  |  |  |  |  |  |  |  | 
Cc1ccc(-c2cc(C(F)(F)F)nn2-c2ccc(S(N)(=O)=O)cc2)cc1 [Celecoxib] |  |  |  |  |  |  |  |  |  | 0 | 0 | 0 | 0 | 0 | 0 | 0 | 0 | 0 | 0 | 0 | 0 | 0 | 0 | 0 | 0 |  | 91.3% | 79% | 76.1% | 69.9% | 110% | 103% | 93.5% | 83.2% | 75.5%
O=C(O)CCCCC(CCSCc1ccccc1)SCc1ccccc1 (stereo not given) [CPI-613] |  |  |  |  |  |  |  |  |  | 0 | 0.118 | 0 | 0 | 0 | 0 | 0 | 0 | 0 | 0 | 0 | 0 | 0 | 0 | 0 | 0 | 0 |  |  |  |  |  |  |  |  | 
Cc1cnc(NC(=O)Nc2cc(Br)c(C)cc2OC[C@@H]2CNCCO2)cn1 [Rabusertib] |  |  |  |  |  |  |  |  |  | 0 | 0 | 0 | 0 | 0 | 0 | 0 | 0 | 0 | 0 | 0 | 0.673 | 0 | 0 | 0 | 0 | 0 |  |  |  |  |  |  |  |  | 
NCCCNCCSP(=O)(O)O [Amifostine] |  |  |  |  |  |  |  |  |  |  |  |  |  |  |  |  |  |  |  |  |  |  |  |  |  |  | 106% | 110% | 85.7% | 81.2% | 82.7% | 92.9% | 109% | 89.8% | 90.6%
